Results as given in patent US9340500B2, “Aromatic heterocyclic derivative having TRPV4-inhibiting activity” (SHIONOGI & CO., LTD., priority 2011, dated 2016).
In brackets after ≈: the same amount, converted by molar mass.

Columns and labels:
[1] = biological target: T1, human TRPV4 (Homo sapiens (Human), UniProt Q9HBA0); experiment: Test Example 3: measurement of TRPV4 inhibitory activity (Fluo-3, FDSS 3000, 4α-PDD); assay type: cell-based; conditions: hTRPV4/CHO cells, calculated from IC50 and 4α-PDD EC50
Procedure: (§1) For each compound, TRPV4 inhibitory activity was measured using cells.
(§2) (1) The TRPV4 inhibitory activity was measured using CHO-K1 cells stably expressing human TRPV4 (hTRPV4/CHO cells).
(2) Frozen cells were thawed and subcultured with the medium (MEM-α, 10% FBS, […], 50 unit/mL penicillin, 50 μg/mL streptomycin, 1 mg/mL G418).
(3) The 96-well plates which hTRPV4/CHO cells were seeded at densities of 2×10^4 cells/well in the culture medium and cultured in a CO2 incubator in the presence of 5% CO2 at 37° C. for 24 h was used as assay plates.
(4) The assay plate was washed with assay buffer (Hanks, […], […], pH7.4).
(5) Fluo-3, fluorescent dye for Ca influx assay was added to each well, then the assay plate was incubated in a CO2 incubator in the presence of 5% CO2 at 37° C. for one hour (final conc.; 5 μmmol/L Fluo-3).
(6) The assay plate was washed with the assay buffer, and the buffer was remained at 30 μL/well. Then the assay plate was incubated for 10 min at 37° C.
(7) Diluted compound solution was dispensed to each well in the compound plate, and mixed with built-in Pipette and Mixer of the fluorescence analysis system FDSS 3000 (Hamamatsu Photonics).
(8) 50 μL of 4α-PDD solution (concluding 0.1% Pluronic F-127) was applied to each well of assay plate and mixed.
(9) The fluorescent intensity was measured by FDSS 3000 for 8 min from the point of time addition the compound solution, at Ex 480 nm, Em 540 nm wavelength.
TRPV4 inhibitory activity (Ki value) of a compound was evaluated according to the following procedure.
(10) In the presence of the compound, the difference between maximal and minimal of fluorescent intensity value for 8 min from just before addition of 4α-PDD solution was calculated, and it was referred as Max-Min value. Max-Min value of the Ruthenium Red at 10 μM was defined as 100% inhibitory activity, Max-Min value in the absence of the compound was defined as 0% inhibitory activity. The TRPV4 inhibitory activity of the compound was calculated by the following formula. (1−(Max-Min value of the compound−100% inhibitory activity)/(0% inhibitory activity−100% inhibitory activity))×100 (11) By the following formula, inhibitory activity was calculated at 10 points with three fold serial dilution, in the final concentration of the compound from 10 μmmol/L to 0.5 nmol/L. The IC50 value was calculated by dose-response curve. 100−[(fluorescent intensity in the presence of the compound−fluorescent intensity of back ground)/(total fluorescent intensity−fluorescent intensity of back ground)]×100 (12) In the presence of the compound, activity of 4α-PDD was measured at 9 points with three fold serial dilution from 20 μmol/L. Activity of 4α-PDD was calculated by the following formula. (Max-Min value of the each 4α-PDD concentration−0% activity)/(100% activity−0% activity))×100 (13) Effective activity was calculated in 4α-PDD the above. The EC50 value was calculated by dose-response curve. (14) The Ki value of a compound was calculated by the following formula. Ki (nmol/L)=IC50 value (nmol/L)/([A]/EC50 value (nmol/L)) [A]; Concentration of agonist (nmol/L)

[2] = Solubility test; assay type: physicochemical; conditions: artificial intestinal juice (phosphate buffer) with 1% DMSO, fassgf or other biorelevant, kinetic from dmso stock, artificial intestinal juice pH 6.8, 16 hours at 25° C.
Procedure: The solubility of each compound is determined under 1% DMSO addition conditions. A 10 mmol/L solution of the compound is prepared with DMSO, and 6 μL of the compound solution is added to 594 μL of an artificial intestinal juice (water and 118 mL of 0.2 mol/L NaOH reagent are added to 250 mL of 0.2 mol/L potassium dihydrogen phosphate reagent to reach 1000 mL) with a pH of 6.8. The mixture is left standing for 16 hours at 25° C., and the mixture is vacuum-filtered. The filtrate is two-fold diluted with methanol/water=1/1, and the compound concentration in the filtrate is measured with HPLC or LC/MS/MS by the absolute calibration method.

[3] = biological target: T1, human TRPV4; experiment: Test Example 1: measurement of TRPV4 inhibitory activity (Fluo 4-AM, FLIPR TETRA, 4α-PDD 1 μmol/L); assay type: cell-based; conditions: hTRPV4/CHO cells; for IC50: 4α-PDD 1 μmol/L
Procedure: as §1, §2
(2) In the day before the experimental day, frozen cell were thawed and washed with the culture medium (MEM-α, 10% FBS, 2 mmol/L GlutaMax, 50 unit Penicillin, 50 μg/mL Streptomycin). Then cells were suspended in the culture medium.
(3) The 384-well plates which hTRPV4/CHO cells were seeded at densities of 4000 cells/well in the culture medium and cultured in a CO2 incubator in the presence of 5% CO2 at 37° C. for overnight was used as assay plates.
(4) The assay plate was washed with assay buffer (Hanks, 20 mmol/L HEPES, 2.5 mmol/L probenecid, pH7.4), and the buffer were remained at 20 μL/well.
(5) 10 μl of dye loading buffer (9 μmol/L Fluo 4-AM, 0.09% Pluronic F-127/assay buffer) was added to each well, then the assay plate was incubated in a CO2 incubator in the presence of 5% CO2 at 37° C. for one hour. (final 3 μmol/L Fluo4-AM).
(6) The assay plate was washed with the assay buffer, and the buffers were remained at 20 μL/well. Then the assay plate was incubated for 10 min at room temperature.
(7) Diluted compound solution was dispensed to each well in the compound plate, and mixed with built-in Pipette and Mixer of the Fluorescence analysis system FLIPR TETRA (Molecular devices).
(8) After incubation for 5 min, 20 μL of 4α-PDD solution were applied to each well of assay plate and mixed with the FLIPR TETRA. (final 1 μmol/L 4α-PDD)
(9) The fluorescent intensity was measured with FLIPR TETRA system for 10 min from the point of time addition the compound solution, at Ex 470-495 nm, Em 515-575 nm wavelength.
TRPV4 inhibitory activity (IC50 value and Ki value) of a compound was evaluated according to the following procedure.
(10) In the presence of the compound, the difference between maximal and minimal of fluorescent intensity value for 5 min from just before addition of 4α-PDD solution was calculated, and it was referred as Max-Min value. Max-Min value of the Ruthenium Red at 20 μM was defined as 100% inhibitory activity, Max-Min value in the absence of the compound was defined as 0% inhibitory activity. The TRPV4 inhibitory activity of the compound was calculated by the following formula. (1−(Max-Min value of the compound−100% inhibitory activity)/(0% inhibitory activity−100% inhibitory activity))×100 (11) Inhibitory activity was calculated at 10 points with three fold serial dilution, in the final concentration of the compound from 10 μmmol/L to 0.5 nmol/L, the IC50 value was calculated by logistic approximation method. (12) In the absence of the compound, the fluorescent intensity was measured as the same method with 10, 1, 0.5, 0.2, and 0 μmol/L as final concentration of 4α-PDD. The difference of minimal and maximal fluorescent intensity value for 5 min from just before addition of 4α-PDD solution was calculated, and it was referred as Max-Min value. Max-Min value of the 4α-PDD at 10 μmol/L was defined as 100% activity, Max-Min value in the absence of 4α-PDD was defined as 0% activity. The TRPV4 activity of each concentration of 4α-PDD was calculated by the following formula. (Max-Min value of the each 4α-PDD concentration−0% activity)/(100% activity−0% activity))×100 (13) Effective activity was calculated in 5 concentrations of 4α-PDD the above. The EC50 value was calculated by logistic approximation method. The Ki value of a compound was calculated by the following formula. Ki (nmol/L)=IC50 value (nmol/L)/(1+[…] (test 4α-PDD concentration (nmol/L)/EC50 value (nmol/L))

[4] = Metabolism stability test; assay type: in vitro ADME; conditions: human liver microsomes, 30 minutes
Procedure: Using a commercially available pooled human hepatic microsomes, a test compound was reacted for a constant time, a remaining rate was calculated by comparing a reacted sample and an unreacted sample, thereby, a degree of metabolism in liver was assessed.
A reaction was performed (oxidative reaction) at 37° C. for 0 minute or 30 minutes in the presence of 1 mmol/L NADPH in 0.2 mL of a buffer (50 mmol/L Tris-HCl pH 7.4, 150 mmol/L potassium chloride, 10 mmol/L magnesium chloride) containing 0.5 mg protein/mL of human liver microsomes. After the reaction, 50 μL of the reaction mixture was added to 100 μL of a methanol/acetonitrile=1/1 (v/v), mixed and centrifuged at 3000 rpm for 15 minutes. The test compound in the supernatant was quantified by LC/MS/MS, and a remaining amount of the test compound after the reaction was calculated, letting a compound amount at 0 minute reaction time to be 100%. Hydrolysis reaction was performed in the absence of NADPH and glucuronidation reaction was in the presence of 5 mM UDP-glucuronic acid in place of NADPH, followed by similar operations.

[5] = biological target: human ether-a-go-go related gene (hERG) channel (Homo sapiens (Human), UniProt Q12809); experiment: hERG test (whole cell patch clamp, IKr); assay type: cell-based; conditions: 1 μmol/L of test compound, HEK293 cells expressing hERG
Excerpt: For the purpose of assessing risk of an electrocardiogram QT interval prolongation, effects on delayed rectifier K^+ current (IKr), which plays an important role in the ventricular repolarization process, was studied using HEK293 cells expressing human ether-a-go-go related gene (hERG) channel.
After a cell was retained at a membrane potential of −80 mV by whole cell patch clamp method using an automated patch clamp system (PatchXpress 7000A, Axon Instruments Inc.), IKr induced by depolarization pulse stimulation at +40 mV for 2 seconds and, further, repolarization pulse stimulation at −50 mV for 2 seconds was recorded. […] From the recording IKr, an absolute value of the tail peak current was measured based on the current value at the resting membrane potential using an analysis software (DataXpress ver. 1, Molecular Devices Corporation). Further, the % inhibition relative to the tail peak current before application of the test substance was calculated, and compared with the vehicle-applied group (0.1% dimethyl sulfoxide solution) to assess influence of the test substance on IKr.

[6] = compound concentration 0.5 μmol/L
[7] = compound concentration 2 μmol/L

T1 sequence (Q9HBA0 whole entry): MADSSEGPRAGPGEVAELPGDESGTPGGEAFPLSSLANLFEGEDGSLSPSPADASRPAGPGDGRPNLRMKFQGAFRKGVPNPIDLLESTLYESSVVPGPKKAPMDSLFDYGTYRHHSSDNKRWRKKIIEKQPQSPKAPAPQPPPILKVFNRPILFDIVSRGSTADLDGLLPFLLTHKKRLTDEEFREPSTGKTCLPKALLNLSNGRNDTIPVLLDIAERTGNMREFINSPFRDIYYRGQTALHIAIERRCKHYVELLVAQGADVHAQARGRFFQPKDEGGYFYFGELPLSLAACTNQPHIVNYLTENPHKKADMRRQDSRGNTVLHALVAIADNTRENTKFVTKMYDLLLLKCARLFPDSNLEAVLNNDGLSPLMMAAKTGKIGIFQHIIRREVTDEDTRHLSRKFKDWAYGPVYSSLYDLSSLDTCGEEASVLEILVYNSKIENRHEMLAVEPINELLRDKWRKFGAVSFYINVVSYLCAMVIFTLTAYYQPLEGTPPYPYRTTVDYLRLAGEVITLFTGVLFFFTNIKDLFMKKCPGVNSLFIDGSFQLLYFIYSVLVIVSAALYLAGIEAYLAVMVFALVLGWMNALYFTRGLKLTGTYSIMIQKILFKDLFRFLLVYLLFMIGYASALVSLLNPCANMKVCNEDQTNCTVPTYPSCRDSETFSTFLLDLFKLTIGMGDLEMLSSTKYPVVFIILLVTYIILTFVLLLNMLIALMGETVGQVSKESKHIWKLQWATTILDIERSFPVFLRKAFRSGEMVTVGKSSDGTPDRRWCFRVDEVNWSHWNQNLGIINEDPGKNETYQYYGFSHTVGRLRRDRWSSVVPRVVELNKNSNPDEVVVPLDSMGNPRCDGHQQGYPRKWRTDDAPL
Sequence of human ether-a-go-go related gene (hERG) channel (Q12809 whole entry): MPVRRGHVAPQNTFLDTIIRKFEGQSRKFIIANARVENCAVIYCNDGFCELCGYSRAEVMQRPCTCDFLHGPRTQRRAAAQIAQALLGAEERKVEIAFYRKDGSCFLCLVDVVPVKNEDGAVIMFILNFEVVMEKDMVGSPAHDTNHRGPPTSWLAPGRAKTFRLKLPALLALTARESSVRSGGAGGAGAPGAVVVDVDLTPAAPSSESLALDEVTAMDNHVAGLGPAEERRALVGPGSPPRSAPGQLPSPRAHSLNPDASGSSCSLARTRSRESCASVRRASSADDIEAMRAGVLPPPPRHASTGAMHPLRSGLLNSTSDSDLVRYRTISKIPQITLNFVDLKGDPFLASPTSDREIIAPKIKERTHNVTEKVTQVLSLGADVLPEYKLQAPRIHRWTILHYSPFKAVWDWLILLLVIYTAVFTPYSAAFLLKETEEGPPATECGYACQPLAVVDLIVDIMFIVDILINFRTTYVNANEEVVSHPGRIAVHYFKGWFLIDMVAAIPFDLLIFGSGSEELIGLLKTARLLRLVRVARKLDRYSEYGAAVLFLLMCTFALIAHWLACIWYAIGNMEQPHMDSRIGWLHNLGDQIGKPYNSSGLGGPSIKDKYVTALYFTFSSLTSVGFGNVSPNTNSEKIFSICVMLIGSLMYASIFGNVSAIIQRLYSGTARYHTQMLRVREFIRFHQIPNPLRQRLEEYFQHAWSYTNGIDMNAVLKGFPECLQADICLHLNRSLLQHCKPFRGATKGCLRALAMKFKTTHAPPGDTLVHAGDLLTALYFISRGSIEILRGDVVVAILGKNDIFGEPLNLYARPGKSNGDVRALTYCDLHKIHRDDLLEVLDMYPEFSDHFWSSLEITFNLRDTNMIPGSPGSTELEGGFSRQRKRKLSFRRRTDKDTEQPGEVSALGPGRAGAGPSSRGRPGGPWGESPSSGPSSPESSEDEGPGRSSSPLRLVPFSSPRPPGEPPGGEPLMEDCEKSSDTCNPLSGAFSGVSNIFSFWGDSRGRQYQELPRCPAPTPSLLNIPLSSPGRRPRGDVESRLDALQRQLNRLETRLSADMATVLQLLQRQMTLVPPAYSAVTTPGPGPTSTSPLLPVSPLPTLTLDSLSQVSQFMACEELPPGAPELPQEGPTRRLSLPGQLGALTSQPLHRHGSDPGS

Cc1c(C(=O)Nc2cccc(C(F)(F)F)c2)cc(-c2ccccc2)n1CCCN(CCO)CCO [Compound I-016]
Ki [1]: 0.191 µM
solubility at 16 h [2]: > 50 µM
IC50 [3]: 0.13 µM

Cc1c(C(=O)Nc2ccccc2C(F)(F)F)cc(-c2ccccc2)n1CCCN1CCOCC1 [Compound I-022]
Ki [1]: 2.48 µM
solubility at 16 h [2]: > 50 µM
IC50 [3]: 2.4 µM

Cc1c(C(=O)Nc2cccc(C(F)(F)F)c2)cc(C2CCNCC2)n1CCCN1CCOCC1 [Compound I-076]
remaining rate (metabolism stability) [4, 6]: 92.7%
solubility at 16 h [2]: > 50 µM
IC50 [3]: 9.7 µM
Ki ([3]; calculated from IC50 and 4α-PDD EC50): 4.7 µM

Cc1c(C(=O)Nc2ccccc2)cc(-c2ccccc2)n1CCCN1CCOCC1 [Compound I-009]
Ki [1]: 0.678 µM
solubility at 16 h [2]: > 50 µM
IC50 [3]: 1.5 µM

Cc1c(C(=O)Nc2cccc(C(F)(F)F)c2)cc(-c2ccccc2)n1CCCN1CCNC(=O)C1 [Compound I-071]
Ki [1]: 0.196 µM
solubility at 16 h [2]: 18.5 µM (≈ 8.96 µg/mL)
IC50 [3]: 0.26 µM

CCOC(=O)Cc1csc(NC(=O)c2cc(-c3ccccc3)n(CCCN3CCOCC3)c2C)n1 [Compound I-005]
Ki [1]: 1.7 µM
solubility at 16 h [2]: > 50 µM

Cc1c(C(=O)Nc2nccs2)cc(-c2ccccc2)n1CCCN1CCOCC1 [Compound I-019]
Ki [1]: 1.5 µM
remaining rate (metabolism stability) [4, 7]: 89.1%
solubility at 16 h [2]: > 50 µM

Cc1c(NS(=O)(=O)c2cccc(C(F)(F)F)c2)cc(-c2ccccc2)n1CCCN1CCOCC1 [Compound I-080]
Ki [1]: 1.8 µM
solubility at 16 h [2]: 24.3 µM (≈ 12.3 µg/mL)
IC50 [3]: 7.4 µM

Cc1c(NC(=O)c2cccc(C(F)(F)F)c2)cc(-c2ccccc2)n1CCCN1CCOCC1 [Compound I-082]
Ki [1]: 1.44 µM
hERG % inhibition [5]: 13.5%
solubility at 16 h [2]: > 50 µM

Cc1c(C(=O)Nc2cccc(C(F)(F)F)c2)cc(-c2ccccc2)n1CCCN [Compound I-023]
Ki [1]: 0.605 µM
remaining rate (metabolism stability) [4, 6]: 96.9%

Cc1c(C(=O)Nc2cccc(C(F)(F)F)c2)cc(-c2cccnc2)n1CCCN1CCOCC1 [Compound I-021]
Ki [1]: 0.379 µM
solubility at 16 h [2]: > 50 µM
IC50 [3]: 0.61 µM

Cc1c(C(=O)Nc2cccc(C(F)(F)F)c2)cc(-c2ccccc2)n1CCCN(C)CC[C@H](O)[C@H](O)CO [Compound I-035]
Ki [1]: 0.771 µM
remaining rate (metabolism stability) [4, 6]: 82.2%
solubility at 16 h [2]: > 50 µM

Cc1c(C(=O)Nc2cccc(C(F)(F)F)c2)cc(C(C)(C)C)n1CCCN1CCOCC1 [Compound I-002]
Ki [1]: 0.197 µM
solubility at 16 h [2]: 19.3 µM (≈ 8.71 µg/mL)
IC50 [3]: 0.36 µM

Cc1c(C(=O)Nc2cnccn2)cc(-c2ccccc2)n1CCCN1CCOCC1 [Compound I-003]
Ki [1]: 3.07 µM
remaining rate (metabolism stability) [4, 7]: 71.4%
solubility at 16 h [2]: > 50 µM
